The term IC50 denotes the concentration at which inhibition is half-maximal. The inhibition is the change of the read-out against control, counted positive when it falls.

Molecules are shown by their SMILES. A value given as a limit tells only on which side of the number the result lay.

Holding throughout (type): biochemical
The target of assay [1] is T1, NEIL1 (Homo sapiens, UniProt Q96FI4).
T1 construct: made in house
The assay is described as follows: NEIL1 excision of FapyAde and FapyGua from γ-irradiated calf thymus DNA by GC-MS/MS. Particulars: 10 µL of 2 mM inhibitor in DMSO, 1 h 37°C. Here is the method: The enzymatic activity of NEIL1 was measured using gas chromatography/isotope-dilution tandem mass spectrometry (GC-MS/MS) and calf thymus DNA samples γ-irradiated at 20 Gy as described, [30]. Aliquots of FapyAde-^13C,^15N2 and FapyGua-^13C,^15N2 were added as internal standards to 50 µg of DNA samples. After drying in a SpeedVac, DNA samples were dissolved in 50 µL of an incubation buffer consisting of 50 mM phosphate buffer (pH 7.4), 100 mM KCl, 1 mM EDTA, and 0.1 mM dithiothreitol, and then incubated with 2 µg NEIL1 for 1 h at 37°C without any inhibitor, DMSO alone, or with 10 µL of an inhibitor solution in DMSO (2 mM). After incubation, 150 µL of cold ethanol was added. The samples were kept at −20°C for 1 h and then centrifuged with 14,000 g for 30 min at 4°C. The supernatant fractions were separated and ethanol removed in a SpeedVac under vacuum. The samples were then frozen in liquid nitrogen and lyophilized overnight. To fully remove DMSO that would interfere with GC-MS/MS analysis, 500 µL water were added to the samples followed by lyophilization overnight. This procedure was repeated twice. Dried samples were derivatized and analyzed by GC-MS/MS as described, [30]. For each data point, three independently prepared samples were used.
Although Gh and Sp are excellent substrates for NEIL1, these are likely not to be the biologically relevant substrates. Thus, to determine if the compounds that were identified above were effective in the inhibition of NEIL1 against its biologically relevant substrates FapyAde and FapyGua, [6], γ-irradiated calf thymus DNA was used as a substrate. The excision by NEIL1 of these substrates from DNA was measured by GC-MS/MS with isotope-dilution. Figure 8 illustrates the excision of FapyAde and FapyGua by NEIL1 from γ-irradiated calf thymus DNA in the absence or presence of inhibitors. […] Some inhibition by DMSO alone was also observed when compared with excision by NEIL1 alone (p = 0.01). However, when compared to DMSO, the inhibitions by P2, P6, P7 and P8 were highly significant (p<0.005). […] A p-value<0.05 was assumed to correspond to statistical significance.

In assay [2] the target is T1, NEIL1. Put plainly: gel-based incision assay of oligodeoxynucleotides containing site-specific base lesions. The following applies: polyacrylamide gel, reaction quenched at 20 min. The method, then:
The 384-well fluorogenic assay was carried out in a 20 µL reaction mixture in 20 mM Tris-HCl pH 8.0, 100 mM KCl, and 0.1% BSA, with 5 nM active enzyme and 50 nM substrate. Possible inhibitors were incubated with the enzyme for at least 5 min at room temperature in a black, low-volume 384-well plate before addition of an equal volume of substrate to start the reaction. The plates were spun for 30 s at 1000 rcf to remove bubbles. The reactions were incubated at 37°C and fluorescence data collected on an Infinite M200 (Tecan, Mannedorf, Switzerland) equipped with standard optics (excitation filter 525 nm, and emission filter 598 nm). For the gel-based assay, reactions were initiated as described for the fluorogenic assay, but quenched with 20 µL 95% formamide at 20 min. The products were separated by electrophoresis through a 15% polyacrylamide gel containing 8 M urea and visualized by a Typhoon scanner (GE Life Sciences, Piscataway, NJ). The fraction of cleaved product was measured using ImageQuant software and analyzed using GraphPad Prism 6. […]

The target in assay [3] is T2, T4 pyrimidine dimer DNA glycosylase (T4-pdg) (Enterobacteria phage T4, UniProt P04418).
T2 construct: made in house
T2 sequence (P04418 whole entry): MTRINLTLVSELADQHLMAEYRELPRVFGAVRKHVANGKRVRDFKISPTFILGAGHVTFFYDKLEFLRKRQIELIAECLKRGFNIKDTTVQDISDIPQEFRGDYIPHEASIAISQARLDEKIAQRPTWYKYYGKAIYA
Put plainly: UV-irradiated plasmid nicking assay. The following applies: 40 µM inhibitor, 15 min; read-out: inhibition of T4-pdg activity (reduction in nicks per plasmid). The method, then:
T4-pdg activity was assayed by a plasmid nicking assay with minor modifications of a previously described method, [27]. Supercoiled pBR322 plasmid was irradiated with 254 nm ultraviolet (UV) light (100 µW/cm^2) for 98 sec to produce approximately 10 thymine dimers per plasmid molecule. Irradiated plasmid (10 nM) was then incubated in the presence or absence of inhibitors with 130 pM active T4-pdg, as assessed by […] trapping. Reactions were started by addition of DNA, incubated for 15 min at 37°C in reaction buffer (10 mM Tris pH 8.0, 1 mM EDTA, 125 mM NaCl, 100 µg/ml BSA), and stopped by the addition of SDS to a final concentration of 1%. Plasmid DNAs (form I, II and III corresponding to supercoiled, nicked circular and linear, respectively) were resolved on a 0.9% agarose gel and visualized with 0.5 µg/ml ethidium bromide. Gel images were captured on a ChemiImager 5500 (Alpha Innotech, Santa Clara, CA) gel documentation system and densitometry was performed using Image J software. Percent remaining form I DNA was calculated by applying a factor of 1.42 to the form I band intensity and then dividing form I by the sum of form I, II and III. The number of nicks per molecule were estimated based on a Poisson distribution, in which nicks per molecule = -ln (mass fraction of form I DNA remaining), and inhibition of activity was measured as the percentage reduction in the number of nicks per plasmid molecule compared to reactions without inhibitor.
In humans, several glycosylases, including OGG1, NTH1, NEIL2, and NEIL3 may participate in the removal of a wide variety of oxidized bases. […] To address this question, assays were designed to measure inhibition of OGG1 and NTH1, as well as the Escherichia coli glycosylase-AP lyase, FPG. In order to compare the relative efficiencies of inhibition between NEIL1 and these other glycosylase/AP lyases, it was necessary to identify common DNA substrates and pair-wise analyze inhibition data. To compare inhibition of NEIL1 versus NTH1, oligodeoxynucleotides were synthesized that contained a site-specific thymine glycol (TG) adduct, while comparative inhibition data for OGG1 and FPG were collected using an oligodeoxynucleotide containing a site-specific 8-oxo-Gua. In control reactions (no inhibitor added), each enzyme generated the expected incised products, confirming the validity of the assay. […] Additionally, experiments were designed to test whether compounds P2, P6, P7, and P8 could inhibit a pyrimidine dimer-specific glycosylase/AP lyase, T4 pyrimidine dimer DNA glycosylase (T4-pdg) that also has an associated AP lyase activity, using an UV-irradiated plasmid nicking assay. […]

T1 sequence (Q96FI4 whole entry): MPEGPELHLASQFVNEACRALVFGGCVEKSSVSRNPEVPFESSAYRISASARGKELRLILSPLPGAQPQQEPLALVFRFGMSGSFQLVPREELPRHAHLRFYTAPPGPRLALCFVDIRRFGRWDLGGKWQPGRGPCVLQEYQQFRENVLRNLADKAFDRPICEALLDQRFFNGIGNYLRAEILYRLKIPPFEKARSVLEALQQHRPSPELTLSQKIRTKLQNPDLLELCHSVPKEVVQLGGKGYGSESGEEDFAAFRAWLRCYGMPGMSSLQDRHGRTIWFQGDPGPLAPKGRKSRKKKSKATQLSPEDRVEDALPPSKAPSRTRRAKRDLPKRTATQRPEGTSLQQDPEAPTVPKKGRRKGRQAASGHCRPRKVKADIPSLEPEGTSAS

On to `Cc1cc(/C=C/C#N)cc(C)c1Nc1nc(Nc2ccc3scnc3c2)c2nc[nH]c2n1` [Purine P2], for which the “inhibition of NEIL1 excision of FapyAde and FapyGua” value in assay [1] is reported as “significantly reduced the activity of NEIL1”. The compound further showed a half-maximal inhibitory concentration (IC50) in assay [2] of 28 µM. The inhibition at 40 µM in assay [3] was under 1%.
For `Cc1nc2ccc(Nc3nc(Nc4c(C)cc(/C=C/C#N)cc4C)nc4[nH]cnc34)cc2s1` [Purine P6], the “inhibition of NEIL1 excision of FapyAde and FapyGua” value in assay [1] is listed as “significantly reduced the activity of NEIL1”. In addition, half-maximal inhibition in assay [2] (IC50) was put at 9.2 µM. In addition, the inhibition at 40 µM in assay [3] amounted to 32%.
The corresponding values for `Cc1cc(/C=C/C#N)cc(C)c1Nc1nc(Nc2ccc3c(c2)CCC3)c2nc[nH]c2n1` [Purine P7] are “significantly reduced the activity of NEIL1”, 11.7 µM and 13%.
For `Cc1cc(/C=C/C#N)cc(C)c1Nc1nc(Nc2ccc3c(c2)OCO3)c2nc[nH]c2n1` [Purine P8] the same measures were “significantly reduced the activity of NEIL1”, 15.2 µM and 14%.

The values above are taken from PMC3857224, “Inhibition of DNA Glycosylases via Small Molecule Purine Analogs” (PLoS ONE, 2013).
